Source: patent publication US20240408223A1 (REGENERON PHARMACEUTICALS, INC., priority 2017, published 2024)
In brackets after ≈: the same amount, converted by molar mass. *1 amine or outer side, *2 acyl side, *3 side chain or, on linkers, in order; H or OH if unused. Where a SMILES comes first, the peptide text is derived from it. [ ]: non-standard residue; d: D form. The star is where a group is joined. X2 = O=C(COC1CCCCCc2c1nnn2[C@@H]1O[C@H](CO)[C@H](O)[C@H](O)[C@H]1O)*; NH(1-deoxy-D-glucityl) = OC[C@@H](O)[C@@H](O)[C@H](O)[C@@H](O)CN*; Dolaproine = CO[C@@H]([C@@H]1CCCN1)[C@@H](C)C(=O)O; Dil = CC[C@H](C)[C@H](NC)[C@@H](CC(=O)O)OC; PABC = O=C(OCc1ccc(N[*:1])cc1)[*:2]; DBCO = C1#Cc2ccccc2N(*)Cc2ccccc21; X1 = C[C@@H](N*)[C@@H](O)c1ccccc1; Cit = NC(=O)NCCC[C@H](N)C(=O)O; PEG4 = NCCOCCOCCOCCOCCC(=O)O; Suc = O=C(CCC(=O)[*:2])[*:1]; NMeV = CN[C@H](C(=O)O)C(C)C

Key:
[1] = pH stability in buffers, determined by LC-MS; assay type: physicochemical; conditions: pH7.4 and 8 buffer, RT, Table 3-1
Protocol: pH stability was assessed as follows. 0.1 mg of sample was dissolved into 0.2-0.3 mL of DMSO, and the resulting solution was added dropwise into different pH buffers (1 mL) while maintain clear solutions during testing time period. The samples were collected from several time points (e.g., over 72 hours), and pH stability was determined by LC-MS. pH buffer was prepared as follows: pH 8.0 sodium borate buffer: Add 9.534 g Sodium borate decahydrate, 1.461 g Sodium chloride, and 0.393 g DTPA to 900 mL distilled water, make sure all powers dissolve completely, then make final volume to 1 L by adding water. pH 7.4 sodium borate buffer: Add […], 9.534 g Sodium borate decahydrate, 1.461 g Sodium chloride, and 0.393 g DTPA to 900 mL distilled water, make sure all powers dissolve completely, then make final volume to 1 L by adding water. pH 5.0 succinate acid buffer: Add 10 mM succinate acid to 150 mL distilled water, and then change the pH to pH5.0 by adding 0.5M NaOH, then make final volume to 250 mL by adding water. pH 7.4 PBS buffer: commercially available. Stability was assessed at 72 hours by LCMS.

Human liver Cathepsin B = Human liver Cathepsin B (Homo sapiens, UniProt P07858); experiment: Cathepsin B cleavage assay of linker-payloads; conditions: Table 1D
Protocol: For the assay, the linker-payload stock solution (10 mM of linker-payload in DMSO) was added into a solution of 100 mM NaOAc, 10 mM dithiothreitol, at pH5 to obtain a 50 μM substrate solution. […] The Cathepsin B and substrate solution was mixed with and without 10 mM of a Cathepsin B inhibitor (CA074; APE Bio, Cat #A1926), and incubated at 37° C. for 4 hours. Following the 4 hour incubation, acetic acid and then acetonitrile were added to stop the reaction. The quenched samples then underwent centrifugation at 14,000 rpm. Aliquots of the resultant supernatants were then diluted with equal volume of water and analyzed by LC/MS to determine the amount of payload released.

Protocol for physchem: The DMSO solution (1 mg/mL, 0.5 mL) was diluted with water (4.5 mL) to generate solution A (0.1 mg/mL, 5 mL, 0.5 mg). Solution A (0.1 mg/mL, 0.5 mL) was diluted with water (4.5 mL) to generate solution B (0.01 mg/mL, 5 mL, 0.05 mg). Solution B (0.01 mg/mL, 0.5 mL) was diluted with water (4.5 mL) to generate solution C (1 μg/mL, 5 mL, 5 μg). Solution C (1 μg/mL, 0.5 mL) was diluted with water (4.5 mL) to generate solution D (0.1 μg/mL, 5 mL, 0.5 μg). The testing sample (0.05 mg) was suspended in water (1 mL), and was sonicated for 5-30 min to dissolve the sample. If no clear solution was observed, the resulting suspension was centrifuged and the clear supernatant solution was collected for analysis. All the standard solutions A, B, C, D and sample solutions were tested using same method on the same LC-MS instrument. Solubility was assessed by LCMS and calculated based on a standard curve.

Row | SMILES | pH Stability [1] | solubility (physchem) [µg/mL] | CapB cleavage rate (%) at 4 hrs (Human liver Cathepsin B) [%]
1 | CC[C@H](C)[C@@H]([C@@H](CC(=O)N1CCC[C@H]1[C@H](OC)[C@@H](C)C(=O)N[C@H](C)[C@@H](O)c1ccccc1)OC)N(C)C(=O)[C@@H](NC(=O)[C@H](C(C)C)N(C)C(=O)OCc1ccc(NC(=O)[C@H](CCCNC(N)=O)NC(=O)[C@@H](NC(=O)[C@@H](CCCCNC(=O)COC2CCCCCc3c2nnn3[C@@H]2O[C@H](CO)[C@H](O)[C@H](O)[C@H]2O)NC(=O)CCOCCOCCOCCOCCNC(=O)CCC(=O)N2Cc3ccccc3C#Cc3ccccc32)C(C)C)cc1)C(C)C (stereo partly drawn) [Ie-1] ({DBCO-Suc-PEG4}-[dK](X2)V[Cit][PABC][NMeV]V[Dil][Dolaproine]-X1) | Y (stable in pH7.4 and 8 buffer at RT for more than 3 days) | 400 (≈ 186 µM) | 72
2 | CC[C@H](C)[C@@H]([C@@H](CC(=O)N1CCC[C@H]1[C@H](OC)[C@@H](C)C(=O)N[C@H](C)[C@@H](O)c1ccccc1)OC)N(C)C(=O)[C@@H](NC(=O)[C@H](C(C)C)N(C)C(=O)OCc1ccc(NC(=O)[C@H](CCCNC(N)=O)NC(=O)[C@@H](NC(=O)[C@@H](CCC(=O)NC[C@H](O)[C@@H](O)[C@H](O)[C@H](O)CO)NC(=O)CCOCCOCCOCCOCCNC(=O)CCC(=O)N2Cc3ccccc3C#Cc3ccccc32)C(C)C)cc1)C(C)C [Ig] ({DBCO-Suc-PEG4}-[dE](NH(1-deoxy-D-glucityl))V[Cit][PABC][NMeV]V[Dil][Dolaproine]-X1) | Y (stable in pH7.4 and 8 buffer at RT for more than 3 days) | 280 (≈ 144 µM) | 70
